Experimental data taken from ChEMBL document CHEMBL1201862, “PubChem BioAssay data set” (2004).
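Cultured in 96-well plates, cells were exposed to test compound for 48 hours across five concentrations. At the GI50, growth is halved.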 Active and inactive are the calls of the source. Cut-off read from the data, not from the text of the source: active = GI50 up to about 1.1 µM and inactive = higher.

What was measured:
Assay in all cases: growth of human tumour cells (NCI), 48 h
ACHN = system: ACHN
A549 = system: A549
K562 = system: K562
SK-OV-3 = system: SK-OV-3
MDA-MB-435 = system: MDA-MB-435
NCI/ADR-RES = system: NCI/ADR-RES
SN12C = system: SN12C
HOP-62 = system: HOP-62
SW-620 = system: SW-620
SNB-75 = system: SNB-75
T47D = system: T47D
HL-60 = system: HL-60
OVCAR-3 = system: OVCAR-3
CCRF-CEM = system: CCRF-CEM
U-251 = system: U-251
A498 = system: A498
LOX IMVI = system: LOX IMVI
SF-539 = system: SF-539
NCI-H522 = system: NCI-H522

Structure (SMILES) | GI50 (ACHN) | GI50 (A549) | GI50 (K562) | GI50 (SK-OV-3) | GI50 (MDA-MB-435) | GI50 (NCI/ADR-RES) | GI50 (SN12C) | GI50 (HOP-62) | GI50 (SW-620) | GI50 (SNB-75) | GI50 (T47D) | GI50 (HL-60) | GI50 (OVCAR-3) | GI50 (CCRF-CEM) | GI50 (U-251) | GI50 (A498) | GI50 (LOX IMVI) | GI50 (SF-539) | GI50 (NCI-H522)
O=C(O)c1cnc2[nH]ccn2c1=O | > 100 µM (inactive) | > 100 µM (inactive) | > 100 µM (inactive) | > 100 µM (inactive) | > 100 µM (inactive) | > 100 µM (inactive) | > 100 µM (inactive) | > 100 µM (inactive) | > 100 µM (inactive) | > 100 µM (inactive) | > 100 µM (inactive) | > 100 µM (inactive) | > 100 µM (inactive) | > 100 µM (inactive) | > 100 µM (inactive) | > 100 µM (inactive) |  |  | 
COc1cc2nc(-c3cccs3)nc(N3C(c4ccc(O)cc4)=NNC(=O)c4ccccc43)c2cc1OC | 23.7 µM (inactive) | 55.6 µM (inactive) | 17.5 µM (inactive) | 38 µM (inactive) | 26.2 µM (inactive) | 17.7 µM (inactive) | 24.2 µM (inactive) | 56.5 µM (inactive) | 30.4 µM (inactive) | 24 µM (inactive) | 29.2 µM (inactive) |  |  | 4.99 µM (inactive) | 27.8 µM (inactive) | > 100 µM (inactive) | 22.3 µM (inactive) | < 0.01 µM (active) | 86.9 µM (inactive)
Cc1ccc(/C=N/NS(=O)(=O)c2ccc(/C=C3\NC(=O)NC3=O)cc2)cc1 | > 100 µM (inactive) | > 100 µM (inactive) | > 100 µM (inactive) | > 100 µM (inactive) | > 100 µM (inactive) | 75.7 µM (inactive) | > 100 µM (inactive) | 27.6 µM (inactive) | > 100 µM (inactive) | 18.2 µM (inactive) | > 100 µM (inactive) | > 100 µM (inactive) | > 100 µM (inactive) | > 100 µM (inactive) | 40.8 µM (inactive) | > 100 µM (inactive) | > 100 µM (inactive) |  | 
Nc1nc(N)nc(-c2cnccn2)n1 | > 100 µM (inactive) | > 100 µM (inactive) | > 100 µM (inactive) | > 100 µM (inactive) | > 100 µM (inactive) | > 100 µM (inactive) | > 100 µM (inactive) | > 100 µM (inactive) | > 100 µM (inactive) | > 100 µM (inactive) | > 100 µM (inactive) |  | > 100 µM (inactive) | > 100 µM (inactive) | > 100 µM (inactive) | > 100 µM (inactive) | > 100 µM (inactive) | > 100 µM (inactive) | > 100 µM (inactive)
O=C1NC(c2ccc3ccccc3c2)Nc2ccccc21 (stereo not given) | 48.1 µM (inactive) |  | 2.54 µM (inactive) | 53.5 µM (inactive) | 3.12 µM (inactive) | 62.4 µM (inactive) |  | 41 µM (inactive) | 43.8 µM (inactive) | 75.7 µM (inactive) | 71.4 µM (inactive) | 15.2 µM (inactive) |  | 30.6 µM (inactive) | > 100 µM (inactive) | 56 µM (inactive) | 58.7 µM (inactive) | 20.7 µM (inactive) | 
CC(C)(C)C(=O)Nc1cccc(-c2ccc[nH]2)n1 | > 100 µM (inactive) | > 100 µM (inactive) |  | > 100 µM (inactive) | > 44.9 µM (inactive) | > 100 µM (inactive) | > 100 µM (inactive) | > 100 µM (inactive) | > 100 µM (inactive) | > 60.8 µM (inactive) | > 57.5 µM (inactive) |  | > 83.8 µM (inactive) | > 100 µM (inactive) | > 70.5 µM (inactive) | > 100 µM (inactive) | > 100 µM (inactive) | > 100 µM (inactive) | > 75 µM (inactive)
